Patent US20250333405A1, “ANTAGONISTS OF GPR39 PROTEIN” (VASOCARDEA, INC., priority 2024, published 2025)

Target: T1, human GPR39 receptor (Homo sapiens, UniProt O43194)
T1 construct: PC3 Cells, Expressing the Endogenous Human GPR39 Receptor; endogenous in cells; host or cells: PC3 (human prostate adenocarcinoma) cells
T1 sequence (O43194 1-453): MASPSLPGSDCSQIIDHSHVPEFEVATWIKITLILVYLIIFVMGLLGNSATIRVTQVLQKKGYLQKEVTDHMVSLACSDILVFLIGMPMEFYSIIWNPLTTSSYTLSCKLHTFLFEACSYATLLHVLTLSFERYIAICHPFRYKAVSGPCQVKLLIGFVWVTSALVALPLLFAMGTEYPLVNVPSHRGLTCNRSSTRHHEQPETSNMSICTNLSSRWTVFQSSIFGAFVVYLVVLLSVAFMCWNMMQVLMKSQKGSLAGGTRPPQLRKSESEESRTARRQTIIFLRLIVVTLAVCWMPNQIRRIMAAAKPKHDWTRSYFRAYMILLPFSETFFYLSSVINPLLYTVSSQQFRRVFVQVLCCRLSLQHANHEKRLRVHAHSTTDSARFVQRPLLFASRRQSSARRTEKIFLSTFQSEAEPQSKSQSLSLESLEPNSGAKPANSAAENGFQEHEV
Test: Intracellular calcium response (FLIPR, Calcium-6) in PC3 cells, antagonism of agonist C3 (TC-G 1008) at EC90
Type: cell-based
Settings: functional pKi (-Log10Ki) by modified Cheng-Prusoff from IC50, PC3 cells endogenously expressing human GPR39, 30 μM ZnCl2, agonist C3 (TC-G 1008) at EC90 1.5 μM; for Ki: read-out: fpKi activity
Outline: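 Calcium-6-loaded cells in HEPES buffer pH 7.4 were given compound with 30 μM final ZnCl2 (0.32% DMSO) for 10 min, then challenged with 1.5 μM C3. Baseline-subtracted peak fluorescence expressed as % inhibition of the C3 response; IC50 from four-parameter logistic fit, reported as binned fpKi.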

Row | Ki | fpKi activity | Compound
1 | ≤ 50.1 nM |  | Cc1nnc(-c2ccc(C(=O)N3CCC(F)(F)CC3)c(-c3cccc(C(F)(F)F)n3)c2)[nH]1 [Example 75, (4,4-difluoropiperidin-1-yl)-[4-(5-methyl-4H-1,2,4-triazol-3-yl)-2-[6-(trifluoromethyl)pyridin-2-yl]phenyl]methanone]
2 | ≤ 50.1 nM |  | Cc1nnc(-c2ccc(C(=O)N3CCC(F)(F)CC3)c(-c3nc(C(F)(F)F)cs3)c2)[nH]1 [Example 76, (4,4-difluoro-1-piperidyl)-[4-(5-methyl-4H-1,2,4-triazol-3-yl)-2-[4-(trifluoromethyl)thiazol-2-yl]phenyl]methanone]
3 | ≤ 50.1 nM |  | Cc1nnc(-c2ccc(C(=O)N3CCC(F)(F)CC3)c(-c3nccc(C(F)(F)F)n3)c2)[nH]1 [Example 77, (4,4-difluoro-1-piperidyl)-[4-(5-methyl-4H-1,2,4-triazol-3-yl)-2-[4-(trifluoromethyl)pyrimidin-2-yl]phenyl]methanone]
4 | ≤ 50.1 nM |  | Cc1nnc(-c2ccc(C(=O)N3CCC(F)(F)CC3)c(-c3cccc(C4CC4)n3)c2)[nH]1 [Example 78, [2-(6-cyclopropyl-2-pyridyl)-4-(5-methyl-4H-1,2,4-triazol-3-yl)phenyl]-(4,4-difluoro-1-piperidyl)methanone]
5 | ≤ 50.1 nM |  | Cc1nnc(-c2ccc(C(=O)N3CCC(F)(F)CC3)c(-c3cccc(C(C)(C)C)n3)c2)[nH]1 [Example 79, [2-(6-tert-butyl-2-pyridyl)-4-(5-methyl-4H-1,2,4-triazol-3-yl)phenyl]-(4,4-difluoro-1-piperidyl)methanone]
6 | ≤ 50.1 nM |  | Cc1nnc(-c2ccc(C(=O)N3CCC(OC(F)(F)F)CC3)c(-c3ccn(C(C)(C)C)n3)c2)[nH]1 [Example 80, [2-(1-tert-butylpyrazol-3-yl)-4-(5-methyl-4H-1,2,4-triazol-3-yl)phenyl]-[4-(trifluoromethoxy)-1-piperidyl]methanone]
7 | 63.1 to 251 nM |  | CCOC(=O)c1csc(-c2cc(C#N)ccc2C(=O)N2CCC(F)(F)CC2)n1 [Example 81, ethyl 2-[5-cyano-2-(4,4-difluoropiperidine-1-carbonyl)phenyl]thiazole-4-carboxylate]
8 | 1260 to 6310 nM |  | CCOC(=O)c1csc(-c2cc(-c3nnc(C)[nH]3)ccc2C(=O)N2CCC(F)(F)CC2)n1 [Example 82, ethyl 2-[2-(4,4-difluoropiperidine-1-carbonyl)-5-(5-methyl-4H-1,2,4-triazol-3-yl)phenyl]thiazole-4-carboxylate]
9 | 316 to 1000 nM |  | CC(C)n1ccc(-c2cc(-c3cc(C(F)(F)F)n[nH]3)ccc2C(=O)N2CCC(F)(F)CC2)n1 [Example 84, (4,4-difluoro-1-piperidyl)-[2-(1-isopropylpyrazol-3-yl)-4-[5-(trifluoromethyl)-1H-pyrazol-3-yl]phenyl]methanone]
10 | 1260 to 6310 nM |  | CC(C)c1cc(-c2ccc(C(=O)N3CCC(F)(F)CC3)c(-c3ccn(C(C)C)n3)c2)[nH]n1 [Example 85, (4,4-difluoro-1-piperidyl)-[2-(1-isopropylpyrazol-3-yl)-4-(5-isopropyl-1H-pyrazol-3-yl)phenyl]methanone]
11 | ≤ 50.1 nM |  | Cc1cc(-c2ccc(C(=O)N3CCC(F)(F)CC3)c(-c3ccn(C(C)C)n3)c2)[nH]n1 [Example 86, (4,4-difluoro-1-piperidyl)-[2-(1-isopropylpyrazol-3-yl)-4-(5-methyl-1H-pyrazol-3-yl)phenyl]methanone]
12 | 63.1 to 251 nM |  | Cc1cnc(-c2ccc(C(=O)N3CCC(F)(F)CC3)c(-c3ccn(C(C)C)n3)c2)[nH]1 [Example 87, (4,4-difluoro-1-piperidyl)-[2-(1-isopropylpyrazol-3-yl)-4-(5-methyl-1H-imidazol-2-yl)phenyl]methanone]
13 | 316 to 1000 nM |  | O=C(Nc1ccc(C(=O)N2CCS(=O)(=O)CC2)c(C2=CCCC2)c1)C1CC1 [Example 88, N-[3-(cyclopenten-1-yl)-4-(1,1-dioxo-1,4-thiazinane-4-carbonyl)phenyl]cyclopropanecarboxamide]
14 | 63.1 to 251 nM |  | CN1CCN(C(=O)c2ccc(NC(=O)C3CC3)cc2C2=CCCC2)C(c2ccccc2)C1 (stereo not shown) [Example 89, N-[3-(cyclopenten-1-yl)-4-(4-methyl-2-phenylpiperazine-1-carbonyl)phenyl]cyclopropanecarboxamide]
15 | > 6310 nM |  | O=C(Nc1ccc(C(=O)N2CCS(=O)(=O)CC2)c(C2CCCC2)c1)C1CC1 [Example 90, N-[3-cyclopentyl-4-(1,1-dioxo-1,4-thiazinane-4-carbonyl)phenyl]cyclopropanecarboxamide]
16 | 316 to 1000 nM |  | CN1CCN(C(=O)c2ccc(NC(=O)C3CC3)cc2C2CCCC2)C(c2ccccc2)C1 (stereo not shown) [Example 91, N-[3-cyclopentyl-4-(4-methyl-2-phenylpiperazine-1-carbonyl)phenyl]cyclopropanecarboxamide]

Row | Ki | fpKi activity | Compound
17 | > 6310 nM |  | Cc1cc(C(=O)N2CCN(C)CC2c2ccccc2)c(N2CCCC2)cc1NC(=O)C1CC1 (stereo not shown) [Example 92, N-[2-methyl-4-(4-methyl-2-phenylpiperazine-1-carbonyl)-5-pyrrolidin-1-ylphenyl]cyclopropanecarboxamide]
18 | > 6310 nM |  | Cc1cc(C(=O)N2CCS(=O)(=O)CC2)c(N2CCCC2)cc1NC(=O)C1CC1 [Example 93, N-[4-(1,1-dioxo-1,4-thiazinane-4-carbonyl)-2-methyl-5-pyrrolidin-1-ylphenyl]cyclopropanecarboxamide]
19 | 316 to 1000 nM |  | Cc1c(NC(=O)C2CC2)ccc(C(=O)N2CCS(=O)(=O)CC2)c1N1CCCC1 [Example 94, N-[4-(1,1-dioxo-1,4-thiazinane-4-carbonyl)-2-methyl-3-pyrrolidin-1-ylphenyl]cyclopropanecarboxamide]
20 | > 6310 nM |  | CN1CCN(C(=O)c2cc(Cl)c(NC(=O)C3CC3)cc2N2CCCC2)C(c2ccccc2)C1 (stereo not shown) [Example 95, N-[2-chloro-4-(4-methyl-2-phenylpiperazine-1-carbonyl)-5-pyrrolidin-1-ylphenyl]cyclopropanecarboxamide]
21 | 1260 to 6310 nM |  | O=C(Nc1cc(N2CCCC2)c(C(=O)N2CCS(=O)(=O)CC2)cc1Cl)C1CC1 [Example 96, N-[2-chloro-4-(1,1-dioxo-1,4-thiazinane-4-carbonyl)-5-pyrrolidin-1-ylphenyl]cyclopropanecarboxamide]
22 | 316 to 1000 nM |  | CN1CCN(C(=O)c2ccc(NC(=O)C3CC3)c(Cl)c2N2CCCC2)C(c2ccccc2)C1 (stereo not shown) [Example 97, N-[2-chloro-4-(4-methyl-2-phenylpiperazine-1-carbonyl)-3-pyrrolidin-1-ylphenyl]cyclopropanecarboxide]
23 | 316 to 1000 nM |  | O=C(Nc1ccc(C(=O)N2CCS(=O)(=O)CC2)c(N2CCCC2)c1Cl)C1CC1 [Example 98, N-[2-chloro-4-(1,1-dioxo-1,4-thiazinane-4-carbonyl)-3-pyrrolidin-1-ylphenyl]cyclopropanecarboxamide]
24 | > 6310 nM |  | O=C(Nc1ccc(-c2nnc(N3CCCC3)o2)c(N2CCCC2)c1)C1CC1 [Example 99, N-[3-pyrrolidin-1-yl-4-(5-pyrrolidin-1-yl-1,3,4-oxadiazol-2-yl)phenyl]cyclopropanecarboxamide]
25 |  | + + | O=C(Nc1ccc(-c2nnc(N3CCC(F)(F)CC3)o2)c(N2CCCC2)c1)C1CC1 [Example 100, N-[4-[5-(4,4-difluoropiperidin-1-yl)-1,3,4-oxadiazol-2-yl]-3-pyrrolidin-1-ylphenyl]cyclopropanecarboxamide]
26 | > 6310 nM |  | CC(=O)Nc1ccc(-c2nccc(N3CCCC3)n2)c(N2CCCC2)c1 [Example 101, N-[3-pyrrolidin-1-yl-4-(4-pyrrolidin-1-ylpyrimidin-2-yl)phenyl]acetamide]
27 | 1260 to 6310 nM |  | CN1CCN(S(=O)(=O)c2ccc(NC(=O)C3CC3)cc2N2CCCC2)C(c2ccccc2)C1 (stereo not shown) [Example 102, N-[4-(4-methyl-2-phenylpiperazin-1-yl)sulfonyl-3-pyrrolidin-1-ylphenyl]cyclopropanecarboxamide]
28 | 1260 to 6310 nM |  | CN1CCN(S(=O)(=O)c2ccc(NC(=O)C3CC3)cc2N2CCCC2)CC1 [Example 103, N-[4-(4-methylpiperazin-1-yl)sulfonyl-3-pyrrolidin-1-ylphenyl]cyclopropanecarboxamide]
29 | 1260 to 6310 nM |  | CN(C1CCN(C(=O)c2ccc(NC(=O)C3CC3)cc2N2CCCC2)CC1)S(C)(=O)=O [Example 104, N-[4-[4-[methyl(methylsulfonyl)amino]piperidine-1-carbonyl]-3-pyrrolidin-1-ylphenyl]cyclopropanecarboxamide]
30 | > 6310 nM |  | CS(=O)(=O)NC1CCN(C(=O)c2ccc(NC(=O)C3CC3)cc2N2CCCC2)CC1 [Example 105, N-[4-[4-(methanesulfonamido)piperidine-1-carbonyl]-3-pyrrolidin-1-ylphenyl]cyclopropanecarboxamide]
31 | 63.1 to 251 nM |  | O=C(c1ccc(-c2nnc[nH]2)cc1N1CCCC1)N1CCC(C(F)(F)F)CC1 [Example 112, [2-pyrrolidin-1-yl-4-(4H-1,2,4-triazol-3-yl)phenyl]-[4-(trifluoromethyl)piperidin-1-yl]methanone]
